Counter-ions that a name gives are not always drawn.
Assays:
[1] = Liver microsomal metabolism stability assay (dog); type: in vitro ADME; conditions: dog liver microsomes, 60 min, compound 1 µM
Procedure: (§1) The objective of this experiment was to detect the stability of the example compounds in liver microsomes of rats, dogs and humans.
(§2) Formulation of compound working solution: compound stock solution was added to phosphate buffer to a final concentration of 20 µM.
(§3) Dilution was performed with 100 mM phosphate buffer to a final concentration of 0.625 mg/mL.
(§4) NADPH (reduced nicotinamide adenine dinucleotide phosphate) and UDPGA (uridine diphosphate glucuronic acid) were weighed, and 100 mM phosphate buffer was added to a final concentration of 20 mM.
(§5) 1 mg of Alamethicin was weighed, and 200 µL of DMSO was added to formulate a 5 mg/mL solution. Then dilution was performed with phosphate buffer to a final concentration of 50 µg/mL.
(§6) Stop solution: cold acetonitrile containing 100 ng/mL labetalol hydrochloride and 400 ng/mL tolbutamide as internal standards.
(§7) 400 µL of formulated liver microsomes, 25 µL of compound working solution and 25 µL of Alamethicin were added in sequence to a 96-well plate, and the mixture was pre-incubated at 37°C for 10 min. Then 50 µL of formulated NADPH/UDPGA was added to start the reaction and the mixture was incubated at 37°C. The total volume of the reaction system was 500 µL. The final contents of each component are as follows:
(§8) • Instrument: Shimadzu LC-30 AD; • Chromatographic column: XBridge® C18 (50*4.6 mm, 5 µm particle size); • Mobile phase: A: 0.1% formic acid solution, B: methanol • Elution gradient: 0.2-1.6 min 5% A to 95% A, 3.0-3.1 min 95% A to 5% A • Run time: 4.0 min.
(§9) • Instrument: API5500 liquid chromatography-mass spectrometer, AB Sciex; • Ion source: electrospray ionization source (ESI); • Drying gas: N2, temperature 500°C; • Electrospray voltage: 5000 V; • Detection mode: positive ion detection; • Scan mode: Multiple Reaction Monitoring (MRM) mode.

[2] = Liver microsomal metabolism stability assay (human); type: in vitro ADME; conditions: human liver microsomes, 60 min, compound 1 µM
Procedure: as §1, §2, §3, §4, §5, §6, §7, §8, §9

[3] = Liver microsomal metabolism stability assay (rat); type: in vitro ADME; conditions: rat liver microsomes, 60 min, compound 1 µM
Procedure: as §1, §2, §3, §4, §5, §6, §7, §8, §9

[4] = Solid stability experiment of crystal forms of salts; type: physicochemical; conditions: for XRPD: after treatment under light, high humidity, high temperature and 50°C/RH75%
Source text: To investigate the physical and chemical stability of crystal forms of the compound under high temperature, high humidity, high temperature and high humidity, and light conditions, thereby providing a basis for crystal form screening and storage.
4.1.3.1 Appropriate amounts of crystal form B of the hydrochloride salt, crystal form A of the methanesulfonic acid salt, crystal form A of the sulphuric acid salt, and crystal form A of the hydrobromic acid salt of the compound 4'-((2-butyl-4-oxo-1,3-diazaspiro[4.4]non-1-en-3-yl)methyl-d2)-N-(4-chloro-5-methylisoxazol-3-yl)-2'-(ethoxymethyl)-[1,1'-biphenyl]-2-sulfonamide were weighed and treated under light (5000±500lux), high humidity (25°C, 92.5%), high temperature (60°C), and 50°C±2°C/RH75%±5% for a certain period of time, and then their XRPD, purity and impurity content data were measured.
The maximum individual impurity increase for crystal form B of hydrochloride salt, crystal form A of methanesulfonic acid salt and crystal form A of sulphuric acid salt was determined by comparing Day 20 with Day 0, whereas for crystal form A of hydrobromic acid salt, it was determined by comparing Day 10 with Day 0.

[5] = Hygroscopicity experiment (dynamic vapor sorption); type: physicochemical
Source text: To investigate the hygroscopicity of crystal form B of the hydrochloride salt of the compound 4'-((2-butyl-4-oxo-1,3-diazaspiro[4.4]non-1-en-3-yl)methyl-d2)-N-(4-chloro-5-methylisoxazol-3-yl)-2'-(ethoxymethyl)-[1,1'-biphenyl]-2-sulfonamide under different relative humidity conditions, thereby providing a basis for compound crystal form screening and storage.
Crystal form B of the hydrochloride salt of the compound 4'-((2-butyl-4-oxo-1,3-diazaspiro[4.4]non-1-en-3-yl)methyl-d2)-N-(4-chloro-5-methylisoxazol-3-yl)-2'-(ethoxymethyl)-[1,1'-biphenyl]-2-sulfonamide was placed in saturated water vapor with different relative humidity to allow the compound and the water vapor to reach dynamic equilibrium, and the percentage of hygroscopic weight gain of the compound after equilibrium was calculated.

[6] = 50°C&75%RH, Day 20 compared with Day 0
[7] = high humidity 25°C, 92.5% RH, Day 20 compared with Day 0
[8] = high temperature 60°C, Day 20 compared with Day 0
[9] = light 5000±500lux, Day 20 compared with Day 0

SMILES	Dog Remaining rate [1]	Human Remaining rate [2]	Rat Remaining rate [3]	Maximum individual impurity increase [4, 6]	XRPD [4]	Maximum individual impurity increase [4, 7]	Maximum individual impurity increase [4, 8]	Maximum individual impurity increase [4, 9]	hygroscopic weight gain ([5]; RH80%, 25°C, DVS)	XRPD pattern after moisture absorption and desorption ([5]; after 2 cycles under 0-95% relative humidity)	Maximum individual impurity increase ([4]; 50°C&75%RH, Day 10 compared with Day 0)	Maximum individual impurity increase ([4]; high humidity 25°C, 92.5% RH, Day 10 compared with Day 0)	Maximum individual impurity increase ([4]; high temperature 60°C, Day 10 compared with Day 0)
[2H]C([2H])(OCC)c1cc(CN2C(=O)C3(CCCC3)N=C2CCCC)ccc1-c1ccccc1S(=O)(=O)Nc1noc(C)c1Cl [Example 4, 4'-((2-Butyl-4-oxo-1,3-diazospiro[4.4]non-1-en-3-yl)methyl)-N-(4-chloro-5-methylisoxazol-3-yl)-2'-(ethoxydeuteromethyl)-[1,1'-biphenyl]-2-sulfonamide]	23.9%	30.7%	17.1%	–	–	–	–	–	–	–	–	–	–
[2H]C([2H])(c1ccc(-c2ccccc2S(=O)(=O)Nc2noc(C)c2Cl)c(COCC)c1)N1C(=O)C2(CCCC2)N=C1CCCC [Crystal form A of sulphuric acid salt, 4'-((2-butyl-4-oxo-1,3-diazaspiro[4.4]non-1-en-3-yl)methyl-d2)-N-(4-chloro-5-methylisoxazol-3-yl)-2'-(ethoxymethyl)-[1,1'-biphenyl]-2-sulfonamide]	–	–	–	0.14%	Crystal form unchanged	0.05%	0.11%	0.06%	–	–	–	–	–
[2H]C([2H])(c1ccc(-c2ccccc2S(=O)(=O)Nc2noc(C)c2Cl)c(COCC)c1)N1C(=O)C2(CCCC2)N=C1CCCC [Crystal form B of hydrochloride salt, 4'-((2-butyl-4-oxo-1,3-diazaspiro[4.4]non-1-en-3-yl)methyl-d2)-N-(4-chloro-5-methylisoxazol-3-yl)-2'-(ethoxymethyl)-[1,1'-biphenyl]-2-sulfonamide]	–	–	–	<0.01%	Crystal form unchanged	<0.01%	0.02%	0.04%	0.378%	no change	–	–	–
[2H]C([2H])(c1ccc(-c2ccccc2S(=O)(=O)Nc2noc(C)c2Cl)c(COCC)c1)N1C(=O)C2(CCCC2)N=C1CCCC [Crystal form A of methanesulfonic acid salt] [4'-((2-butyl-4-oxo-1,3-diazaspiro[4.4]non-1-en-3-yl)methyl-d2)-N-(4-chloro-5-methylisoxazol-3-yl)-2'-(ethoxymethyl)-[1,1'-biphenyl]-2-sulfonamide]	–	–	–	0.08%	Crystal form unchanged	<0.01%	0.05%	0.09%	–	–	–	–	–
[2H]C([2H])(c1ccc(-c2ccccc2S(=O)(=O)Nc2noc(C)c2Cl)c(COCC)c1)N1C(=O)C2(CCCC2)N=C1CCCC [Crystal form A of hydrobromic acid salt, 4'-((2-butyl-4-oxo-1,3-diazaspiro[4.4]non-1-en-3-yl)methyl-d2)-N-(4-chloro-5-methylisoxazol-3-yl)-2'-(ethoxymethyl)-[1,1'-biphenyl]-2-sulfonamide]	–	–	–	–	Crystal form unchanged	–	–	–	–	–	0.02%	0.02%	0.05%

— patent publication EP4671240A1, “SALT CONTAINING AROMATIC RING DERIVATIVE ANTAGONIST, PREPARATION METHOD THEREFOR, AND APPLICATION THEREOF” (Jiangsu Hansoh Pharmaceutical Group Co., Ltd., priority 2023, dated 2024)
